Biological target: T1, WT LRRK2 (Homo sapiens, UniProt Q5S007)
T1 construct: endogenous in cells; host or cells: HEK293 (endogenous LRRK2 gene knock-in tagged with HiBit; stably expressing CMV-driven firefly luciferase)
Test: LRRK2 HiBit degradation assay (Nano-Glo Dual Luciferase) in HEK293 cells with HiBit-tagged endogenous LRRK2
Assay type: cell-based
Conditions: for Dmax / WT LRRK2 **Dmax (%): maximal degradation
Description: Biological Assays Exemplary Assay for Testing LRRK2 Degradation Driven by Exemplary Hetero-Bifunctional Compounds Designed to Target LRRK2
The assay measures the degradation of LRRK2 in cells where the C-terminus (3′) of the endogenous gene has been tagged with a HiBit sequence in HEK293 cells. The cells also express firefly lucisferase, expressed from a Cytomegalovirus promoter and introduced into the HiBit tagged cells and stably expressed. The Nano-Glo® Dual Luciferase Reporter Assay System (Promega™, Madison, WI) was utilized.
Day 1—Preparation of Compound and Assay Plates. Two sets of plates were prepared: a triplicate set for the HiBit assay in white 384-well plates and a triplicate set of plate in black 384-well plates for the Alamar Blue cell viability assay. Briefly, the growth media (DMEM+Glutamax-10% fetal bovine serum-1% Penicillin-Streptomicin) from two T128 flasks was aspirated from the flasks. Cells were washed with Dulbecco's Phosphate Buffered Saline (dPBS) and aspirated. Trypsin (3 mL per flask) was added and the flasks were incubated for 2-3 minutes.
Ten mL of OptiMEM—10% fetal bovine-1% penicillin-streptomycin (hereinafter, “OptiMEM media”) was added to the flask and the cells and transferred to a 50 ml conical tube. A cell count (25 ul of cell into Effendorf vial+25 ul of Trypan Blue Stain) was performed and the cell density adjusted to 15,000 cell/45 μl/well (3.33×10^5/mL) in OptiMEM media.
Forty-five microliters of the cell suspension (15,000 cells) was aliquoted to each well of the white 384-well plate. The plates incubated at room temperature for 10 minutes before being placed in the 37° C.+5% CO2 incubator overnight
Day 2—Compound Treatment. Exemplary compounds were prepared at a 1 mM starting concentration and 1:3 serial dilution for 11 points CRC prepared and stored in the freezer. The Master Compound Plate was thawed overnight at room temperature. DMSO (20 μL) was added into column 24 of the Master Compound Plate for negative control and 20 μL of 300 μM of Compound 4 in column 23 as positive control.
Intermediate Compound Plate with 4% DMSO in OptiMEM Media. DMSO was added to warm OptiMEM media to achieve a 4% DMSO solution (approximately 50 mL/plate). One-hundred microliters of the OptiMEM-4% DMSO was aliquoted to each well of 384-Well Deep Well Microplates.
The Master Compound Plate and the Intermediate Compound Plate were spun down.
One microliter of compound from the Master Compound Plate was transferred into the Intermediate plate (a 1:100 dilution). The diluted mixture was mixed and 5 μL transferred into the assay plate (a 1:10 dilution) for the final starting concentration of 1 μM. The Treated Assay plates were incubated for 24 hours at 37° C.+5% CO2. The Master Compound Plate was sealed and store at room temperature for a second run that was performed within a week.
One set of white assay plates was warmed to room temperature (45 minute).
The One Glo luciferase mixture was prepared. The media from white 384-well assay plates was aspirated. Twenty-five μL of the One Glo luciferase mixture was added to each well of the assay plates. The plates were incubated on the bench (room temperature) for 45 minutes, including 10 minutes of shaking at 700 rpm. The luminescence of each plate was read on a plate reader.
1:100 DLR substrate and 1:100 LgBiT Protein dilution were added to the Promega Stop and Glo buffer and mixed just before addition to assay plates. Twenty-five microliters of Stop and Glo mixture was added to each well. Assay plates incubated for at least 45 minutes, including 10 minutes of shaking at 700 rpm. The luminescence of each plate was read on a plate reader.
Analysis of LRRK2 HiBit Screening assays. As mentioned above, plates were run in triplicate and the assay repeated twice (total of 6 replicate for exemplary compounds). For each treatment, measurements were taken for firefly luciferase for cell number, cell viability (Alamar Blue), and Nanoluc for the LRRK2-HiBit quantification. […]

[1] = HEK293, Table 2, HiBit-tagged LRRK2 in HEK293 cells, 24 hours treatment
[2] = Table 2, HiBit-tagged LRRK2 in HEK293 cells, 24 hours treatment, starting concentration 1 μM
[3] = Table 2, HiBit-tagged LRRK2 in HEK293 cells, 24 hours treatment
[4] = HEK293, Table 3, comparison with direct comparators
[5] = Table 3, comparison with direct comparators, HiBit-tagged LRRK2 in HEK293 cells, 24 hours treatment

T1 sequence (Q5S007 whole entry): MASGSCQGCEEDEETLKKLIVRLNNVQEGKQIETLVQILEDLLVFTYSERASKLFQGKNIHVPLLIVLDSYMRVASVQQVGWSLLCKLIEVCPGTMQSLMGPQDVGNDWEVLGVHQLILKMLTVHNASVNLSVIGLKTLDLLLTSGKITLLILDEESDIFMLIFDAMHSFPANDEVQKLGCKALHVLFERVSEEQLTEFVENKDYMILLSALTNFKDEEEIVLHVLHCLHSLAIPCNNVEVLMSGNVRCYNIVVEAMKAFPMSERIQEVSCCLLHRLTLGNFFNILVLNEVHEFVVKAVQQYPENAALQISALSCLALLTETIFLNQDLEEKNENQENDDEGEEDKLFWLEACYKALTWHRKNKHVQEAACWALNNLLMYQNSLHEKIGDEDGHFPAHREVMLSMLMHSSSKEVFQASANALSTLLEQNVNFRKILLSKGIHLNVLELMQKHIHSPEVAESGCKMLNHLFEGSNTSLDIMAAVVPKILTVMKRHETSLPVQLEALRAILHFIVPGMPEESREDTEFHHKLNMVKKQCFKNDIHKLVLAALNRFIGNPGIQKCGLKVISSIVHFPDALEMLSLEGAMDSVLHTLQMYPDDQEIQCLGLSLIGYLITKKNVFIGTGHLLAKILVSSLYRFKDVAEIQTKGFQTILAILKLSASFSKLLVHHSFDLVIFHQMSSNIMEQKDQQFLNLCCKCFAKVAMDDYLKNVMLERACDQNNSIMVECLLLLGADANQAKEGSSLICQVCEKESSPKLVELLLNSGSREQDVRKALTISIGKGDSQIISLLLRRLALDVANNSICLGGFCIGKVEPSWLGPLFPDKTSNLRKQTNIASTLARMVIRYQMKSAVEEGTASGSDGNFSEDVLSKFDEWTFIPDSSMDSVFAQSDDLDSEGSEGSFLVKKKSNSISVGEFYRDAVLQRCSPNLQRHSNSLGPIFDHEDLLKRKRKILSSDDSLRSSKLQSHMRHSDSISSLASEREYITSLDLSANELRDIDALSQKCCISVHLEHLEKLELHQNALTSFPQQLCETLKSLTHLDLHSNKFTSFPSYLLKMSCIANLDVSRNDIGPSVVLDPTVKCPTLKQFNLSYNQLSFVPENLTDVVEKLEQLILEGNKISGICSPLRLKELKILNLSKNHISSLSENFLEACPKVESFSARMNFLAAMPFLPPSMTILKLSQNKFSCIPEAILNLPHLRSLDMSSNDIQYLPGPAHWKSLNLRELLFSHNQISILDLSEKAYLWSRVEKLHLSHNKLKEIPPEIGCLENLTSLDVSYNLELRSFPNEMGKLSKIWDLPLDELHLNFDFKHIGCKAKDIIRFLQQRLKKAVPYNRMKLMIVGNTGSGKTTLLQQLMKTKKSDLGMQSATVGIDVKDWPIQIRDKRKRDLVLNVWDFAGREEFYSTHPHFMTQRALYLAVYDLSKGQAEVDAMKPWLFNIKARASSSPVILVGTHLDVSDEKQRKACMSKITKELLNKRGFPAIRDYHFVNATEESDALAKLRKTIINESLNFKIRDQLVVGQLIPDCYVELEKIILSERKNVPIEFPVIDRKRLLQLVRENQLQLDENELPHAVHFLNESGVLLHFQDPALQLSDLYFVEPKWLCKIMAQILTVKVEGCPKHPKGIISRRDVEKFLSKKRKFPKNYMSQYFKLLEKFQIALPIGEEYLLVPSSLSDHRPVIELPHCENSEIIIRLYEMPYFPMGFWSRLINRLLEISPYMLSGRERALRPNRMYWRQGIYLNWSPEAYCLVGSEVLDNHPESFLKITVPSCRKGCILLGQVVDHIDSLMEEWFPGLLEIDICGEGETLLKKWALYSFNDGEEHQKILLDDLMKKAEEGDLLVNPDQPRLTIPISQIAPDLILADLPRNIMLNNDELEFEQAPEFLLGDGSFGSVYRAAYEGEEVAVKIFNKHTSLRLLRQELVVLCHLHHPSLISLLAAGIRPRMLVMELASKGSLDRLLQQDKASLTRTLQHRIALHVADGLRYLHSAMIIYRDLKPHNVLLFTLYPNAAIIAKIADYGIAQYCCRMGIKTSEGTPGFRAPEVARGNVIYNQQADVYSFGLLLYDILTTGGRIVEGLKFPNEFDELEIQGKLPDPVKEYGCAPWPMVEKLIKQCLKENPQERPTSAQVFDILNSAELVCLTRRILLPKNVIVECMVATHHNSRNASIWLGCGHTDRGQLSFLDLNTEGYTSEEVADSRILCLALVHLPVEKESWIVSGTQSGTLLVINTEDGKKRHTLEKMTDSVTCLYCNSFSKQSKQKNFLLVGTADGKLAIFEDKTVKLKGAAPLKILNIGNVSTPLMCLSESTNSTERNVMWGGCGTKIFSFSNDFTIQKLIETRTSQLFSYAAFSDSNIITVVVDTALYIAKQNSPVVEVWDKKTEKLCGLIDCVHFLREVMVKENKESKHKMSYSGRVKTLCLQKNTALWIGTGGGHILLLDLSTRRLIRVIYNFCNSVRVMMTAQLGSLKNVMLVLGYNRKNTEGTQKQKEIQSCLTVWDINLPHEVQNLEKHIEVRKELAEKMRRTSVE

Structure (SMILES) | Dmax [1] | DC50 [2] | Dmax [4] | DC50 [5] | WT LRRK2 **Dmax (%) [3] | Dmax [3]
CC(C)n1c(=O)n(C2CCC(=O)NC2=O)c2ccc(N3CCC(OC4CCC(OC5CCN(c6cc(-c7n[nH]c8cnc(OC9(C)CC9)cc78)ncn6)CC5)CC4)CC3)cc21 (stereo not drawn) [Compound 26, rel-3-[2-oxo-3-(propan-2-yl)-5-(4-{[(1r,4r)-4-[(1-{6-[5-(1-methylcyclopropoxy)-1H-pyrazolo[3,4-c]pyridin-3-yl]pyrimidin-4-yl}piperidin-4-yl)oxy]cyclohexyl]oxy}piperidin-1-yl)-2,3-dihydro-1H-1,3-benzodiazol-1-yl]piperidine-2,6-dione] | – | 1.1 nM | – | – | 69% | –
Cn1c(=O)n(C2CCC(=O)NC2=O)c2ccc(N3CCN(C[C@H]4C[C@H](OC5CCN(c6cc(-c7n[nH]c8cnc(OC9(C)CC9)cc78)ncn6)CC5)C4)CC3)cc21 (single isomer, unassigned) [Compound 36, rel-3-[3-methyl-2-oxo-5-(4-{[(1r,3r)-3-[(1-{6-[5-(1-methylcyclopropoxy)-1H-pyrazolo[3,4-c]pyridin-3-yl]pyrimidin-4-yl}piperidin-4-yl)oxy]cyclobutyl]methyl}piperazin-1-yl)-2,3-dihydro-1H-1,3-benzodiazol-1-yl]piperidine-2,6-dione] | – | 0.079 nM | – | – | – | 60%
Cn1c(=O)n(C2CCC(=O)NC2=O)c2ccc(N3CCC(O[C@H]4CC[C@H](CN5CCN(c6cc(-c7n[nH]c8cnc(OC(C)(C)C)cc78)ncn6)CC5)CC4)CC3)cc21 (single isomer, unassigned) [Compound 19, rel-3-[3-methyl-2-oxo-5-(4-{[(1r,4r)-4-[(4-{6-[5-(tert-butoxy)-1H-pyrazolo[3,4-c]pyridin-3-yl]pyrimidin-4-yl}piperazin-1-yl)methyl]cyclohexyl]oxy}piperidin-1-yl)-2,3-dihydro-1H-1,3-benzodiazol-1-yl]piperidine-2,6-dione] | 76% | 28 nM | – | – | – | –
Cn1c(=O)n(C2CCC(=O)NC2=O)c2ccc(N3CCC(O[C@H]4C[C@H](COC5CCN(c6cc(-c7n[nH]c8cnc(OC9(C)CC9)cc78)ncn6)CC5)C4)CC3)cc21 (single isomer, unassigned) [Compound 34, rel-3-(3-methyl-2-oxo-5-{4-[(1r,3r)-3-{[(1-{6-[5-(1-methylcyclopropoxy)-1H-pyrazolo[3,4-c]pyridin-3-yl]pyrimidin-4-yl}piperidin-4-yl)oxy]methyl}cyclobutoxy]piperidin-1-yl}-2,3-dihydro-1H-1,3-benzodiazol-1-yl)piperidine-2,6-dione] | 57% | 0.42 nM | – | – | – | –
Cn1c(=O)n(C2CCC(=O)NC2=O)c2cccc(N3CCC(O[C@H]4CC[C@H](CN5CCN(c6cc(-c7n[nH]c8ccc(OC9(C)CC9)cc78)ncn6)CC5)CC4)CC3)c21 (some centres unmarked) [Compound 9, 3-[3-methyl-2-oxo-4-(4-{[(1r,4r)-4-[(4-{6-[5-(1-methylcyclopropoxy)-1H-indazol-3-yl]pyrimidin-4-yl}piperazin-1-yl)methyl]cyclohexyl]oxy}piperidin-1-yl)-2,3-dihydro-1H-1,3-benzodiazol-1-yl]piperidine-2,6-dione] | 66% | 1.2 nM | 66% | 1.2 nM | – | –

The next lines start with results.

Dmax [1] | DC50 [2] | Dmax [4] | DC50 [5] | Structure (SMILES) | WT LRRK2 **Dmax (%) [3] | Dmax [3]
54% | 0.3 nM | – | – | Cn1c(=O)n(C2CCC(=O)NC2=O)c2ccc(N3CCC(O[C@H]4CC[C@H](CN5CCN(c6cc(-c7n[nH]c8ccc(C9(C#N)CCC9)cc78)ncn6)CC5)CC4)CC3)cc21 (single isomer, unassigned) [Compound 62, rel-1-{3-[6-(4-{[(1r,4r)-4-({1-[1-(2,6-dioxopiperidin-3-yl)-3-methyl-2-oxo-2,3-dihydro-1H-1,3-benzodiazol-5-yl]piperidin-4-yl}oxy)cyclohexyl]methyl}piperazin-1-yl)pyrimidin-4-yl]-1H-indazol-5-yl}cyclobutane-1-carbonitrile] | – | –
56% | 3.9 nM | 56% | 3.9 nM | CC1(Oc2ccc3[nH]nc(-c4cc(N5CCN(C[C@H]6CC[C@H](OC7CCN(c8ccc9c(ncn9C9CCC(=O)NC9=O)c8F)CC7)CC6)CC5)ncn4)c3c2)CC1 (stereo partly drawn) [Compound 45, rel-3-[4-fluoro-5-(4-{[(1r,4r)-4-[(4-{6-[5-(1-methylcyclopropoxy)-1H-indazol-3-yl]pyrimidin-4-yl}piperazin-1-yl)methyl]cyclohexyl]oxy}piperidin-1-yl)-1H-1,3-benzodiazol-1-yl]piperidine-2,6-dione] | – | –
– | 17 nM | – | – | CC(C)Oc1cc2c(-c3cc(N4CCC(OC5CCC(OC6CCN(c7ccc8c(c7)n(C)c(=O)n8C7CCC(=O)NC7=O)CC6)CC5)CC4)ncn3)n[nH]c2cn1 (centres unmarked) [Compound 28] | 60% | –
42% | 5.2 nM | 52% | 5.2 nM | Cc1nc2cc(N3CCC(O[C@H]4CC[C@H](CN5CCN(c6cc(-c7n[nH]c8ccc(OC9(C)CC9)cc78)ncn6)CC5)CC4)CC3)ccc2n1C1CCC(=O)NC1=O (stereo partly drawn) [Compound 42, rel-3-[2-methyl-5-(4-{[(1r,4r)-4-[(4-{6-[5-(1-methylcyclopropoxy)-1H-indazol-3-yl]pyrimidin-4-yl}piperazin-1-yl)methyl]cyclohexyl]oxy}piperidin-1-yl)-1H-1,3-benzodiazol-1-yl]piperidine-2,6-dione] | – | –
55% | 0.18 nM | – | – | CC(C)n1c(=O)n(C2CCC(=O)NC2=O)c2ccc(N3CCC(CN4CCN(CC5CCN(c6cc(-c7n[nH]c8ccc(OC9(C)CC9)cc78)ncn6)CC5)C(C)(C)C4)CC3)cc21 (centres unmarked) [Compound 2, 3-{5-[4-({3,3-dimethyl-4-[(1-{6-[5-(1-methylcyclopropoxy)-1H-indazol-3-yl]pyrimidin-4-yl}piperidin-4-yl)methyl]piperazin-1-yl}methyl)piperidin-1-yl]-2-oxo-3-(propan-2-yl)-2,3-dihydro-1H-1,3-benzodiazol-1-yl}piperidine-2,6-dione] | – | –
56% | 4.9 nM | 56% | 4.9 nM | CC1(Oc2ccc3[nH]nc(-c4cc(N5CCC(CN6CCN(CC7CCN(c8cc(F)c9c(c8)ncn9C8CCC(=O)NC8=O)CC7)CC6(C)C)CC5)ncn4)c3c2)CC1 (centres unmarked) [Compound 39, 3-{5-[4-({3,3-dimethyl-4-[(1-{6-[5-(1-methylcyclopropoxy)-1H-indazol-3-yl]pyrimidin-4-yl}piperidin-4-yl)methyl]piperazin-1-yl}methyl)piperidin-1-yl]-7-fluoro-1H-1,3-benzodiazol-1-yl}piperidine-2,6-dione] | – | –
57% | 0.25 nM | – | – | CC(C)Oc1ccc2[nH]nc(-c3cc(N4CCC(O[C@H]5CC[C@H](OC6CCN(c7ccc8c(c7)n(C)c(=O)n8C7CCC(=O)NC7=O)CC6)CC5)CC4)ncn3)c2c1 (single isomer, unassigned) [Compound 27, rel-3-[3-methyl-2-oxo-5-(4-{[(1r,4r)-4-[(1-{6-[5-(propan-2-yloxy)-1H-indazol-3-yl]pyrimidin-4-yl}piperidin-4-yl)oxy]cyclohexyl]oxy}piperidin-1-yl)-2,3-dihydro-1H-1,3-benzodiazol-1-yl]piperidine-2,6-dione] | – | –

Source: patent US12589156B2, “Benzimidazole and benzimidazolone based protac compounds for the targeted degradation of leucine rich repeat kinase 2 (LRRK2)” (Arvinas Operations, Inc., priority 2023, dated 2026)
